As usually defined, the GI50 is the concentration giving 50% growth inhibition.

For 2 compounds, GI50 results are on record in ChEMBL document CHEMBL1129835, “Selective cytotoxicity of certain 9-substituted ellipticines for leukemia cells in a variety of leukemia cell cultures” (1997).

Holding throughout (type): functional
Holding throughout (settings): Homo sapiens

The subject of assay [1] is MDA-N. As to the kind of experiment: The compound was evaluated for cytotoxicity against MDA-N breast cancer cell line.
Assay [2] concerns PC-3. The assay is described as follows: The compound was evaluated for cytotoxicity against PC-3 prostate cancer cell line.
In assay [3] the test system is IGROV-1. As to the kind of experiment: The compound was evaluated for cytotoxicity against IGROV1 ovarian cancer cell line.
Assay [4] relates to MOLT-4. The assay is described as follows: The compound was evaluated for cytotoxicity against MOLT-4 leukemia cell line.
Assay [5] relates to CAKI-1. The assay is described as follows: The compound was evaluated for cytotoxicity against CAKI-1 renal cancer cell line.
The subject of assay [6] is LOX IMVI. The assay is described as follows: The compound was evaluated for cytotoxicity against LOX-IMVI melanoma cell line.
Assay [7] concerns NCI-H322M. As to the kind of experiment: The compound was evaluated for cytotoxicity against NCI-H322M non-small cell lung cancer cell line.
The subject of assay [8] is U-251. The assay is described as follows: The compound was evaluated for cytotoxicity against U251 CNS cancer cell line.
In assay [9] the test system is HCT-116. The assay is described as follows: The compound was evaluated for cytotoxicity against HCT116 colon cancer cell line.

SMILES strings stand for the structures.

Take `CCN(CC)CCNCc1ccc2[nH]c3c(C)c4ccncc4c(C)c3c2c1`: the GI50 in [1] came out at 110 nM; in assay [2] it was 210 nM; in assay [3], 40 nM; in [4] it was 10 nM; in [5] it was 160 nM; in [6], 120 nM. Moreover, the GI50 in assay [7] was 60 nM; in assay [8], 180 nM; in assay [9] it was 50 nM.

Consider `Cc1c2ccncc2c(C)c2c1[nH]c1ccc(CN(CCO)CCO)cc12`, for which the GI50 came out at 370 nM in assay [1]; 340 nM in assay [2]; 120 nM in [3]; 20 nM in assay [4]; 250 nM in assay [5]; 150 nM in [6]. For the same compound, the concentration for 50% growth inhibition (GI50) worked out at 220 nM in [7], 260 nM in [8] and 100 nM in [9].
